The text below walks through data of US9833497B2, “Human originated EGF domain proteins and use of the same” (CHENGDU SOURCEBIO LIMITED-LIABILITY COMPANY, priority 2013, dated 2017).

The MIC is the lowest concentration found to suppress growth. Low readings indicate greater potency, high ones weaker potency.

Assay type in all cases: cell-based
One assay has as its system E. coli DH5α. As to the kind of experiment: Antibacterial activity: MIC and growth curve against E. coli DH5α in 96-well plate. To be noted: minimal inhibitory concentration against E. coli DH5α; 96-well plate, 5×10^5 CFU/mL, 37° C., judged after 8 h. The essentials:
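Log-phase DH5α (OD600 about 0.5, 37° C, 185 rpm in LB) was pelleted, resuspended in fresh LB and seeded at 5×10^5 CFU/mL with recombinant protein at 50, 25 and 12.5 μg/mL (two-fold series), in triplicate. Plates were shaken at 175 rpm, 37° C, and OD600 was read every 30 min. MIC was the lowest concentration with no growth.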

The test system of a further assay is E. coli BL21. The experiment in a line: MIC against Gram-negative bacteria: E. coli BL21. Conditions: E. coli BL21; for MIC / MIC (μg/mL) E. coli BL21: 10 h cultivation at 37° C. The essentials:
(§1)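 MIC = lowest concentration of recombinant protein showing no growth. Test proteins: purified human-derived EGF domain proteins, two-fold dilution series, three wells per concentration; inoculum 5×10^5 CFU/mL in LB; incubation 37° C with shaking at 175 rpm.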

The next assay has as its system Pseudomonas aeruginosa. The experiment in a line: MIC against Gram-negative bacteria: Pseudomonas aeruginosa. To be noted: for MIC / MIC (μg/mL) P. aeruginosa: P. aeruginosa, 10 h cultivation at 37° C. The essentials:
as §1

The subject of the next assay is Klebsiella pneumonia. As to the kind of experiment: MIC against Gram-negative bacteria: Klebsiella pneumonia. Conditions: for MIC / MIC (μg/mL) K. pneumonia: K. pneumonia, 10 h cultivation at 37° C. The essentials: as §1
The subject of another assay is Enterobacter cloacae. As to the kind of experiment: MIC against Gram-negative bacteria: Enterobacter cloacae. To be noted: for MIC / MIC (μg/mL) E. cloacae: E. cloacae, 10 h cultivation at 37° C. The essentials: as §1
A further assay concerns Aeromonas hydrophila. As to the kind of experiment: MIC against Gram-negative bacteria: Aeromonas hydrophila. Conditions: for MIC / MIC (μg/mL) A. hydrophila: A. hydrophila, 10 h cultivation at 37° C. Put shortly:
as §1

The test system of another assay is Citrobacter diversus. As to the kind of experiment: MIC against Gram-negative bacteria: Citrobacter diversus. To be noted: for MIC / MIC (μg/mL) C. diversus: C. diversus, 10 h cultivation at 37° C. The essentials:
as §1

The test system of a further assay is Moraxella catarrhalis. As to the kind of experiment: MIC against Gram-negative bacteria: Moraxella catarrhalis. Conditions: for MIC / MIC (μg/mL) M. catarrhalis: M. catarrhalis, 10 h cultivation at 37° C. The essentials: as §1
A further assay concerns Proteus mirabilis. As to the kind of experiment: MIC against Gram-negative bacteria: Proteus mirabilis. Conditions: for MIC / MIC (μg/mL) P. mirabilis: P. mirabilis, 10 h cultivation at 37° C. Put shortly:
as §1

Another assay has as its system Proteus vulgaris. The experiment in a line: MIC against Gram-negative bacteria: Proteus vulgaris. Conditions: for MIC / MIC (μg/mL) P. vulgaris: P. vulgaris, 10 h cultivation at 37° C. The essentials:
as §1

The subject of a further assay is Serratia marcescens. As to the kind of experiment: MIC against Gram-negative bacteria: Serratia marcescens. To be noted: for MIC / MIC (μg/mL) S. marcescens: S. marcescens, 10 h cultivation at 37° C. The essentials:
as §1

As to “PRT981 (DINECRSGACHAAHTRDCLQDPGGGFRCLCHAGFSGPRCQ; listed as Homo sapiens)”, the minimum inhibitory concentration (MIC) amounted to 25 mg/L in the assay on E. coli DH5α; 12.5 mg/L in the assay on E. coli BL21; 50 mg/L against Pseudomonas aeruginosa; 12.5 mg/L in the assay with Klebsiella pneumonia; 50 mg/L against Enterobacter cloacae; 12.5 mg/L against Aeromonas hydrophila. Moreover, the MIC is 25 mg/L in the assay on Citrobacter diversus; 25 mg/L against Moraxella catarrhalis; 12.5 mg/L in the assay with Proteus mirabilis; 50 mg/L in the assay with Proteus vulgaris; 12.5 mg/L in the assay with Serratia marcescens.
The substance “PRT833 (CEANNGGCSHGCSHTSAGPLCTCPRGYELDTDQRTC; listed as Homo sapiens)” displayed a minimal inhibitory concentration (MIC) against E. coli DH5α of 12.5 mg/L. Further, in the assay on E. coli BL21 (5×10^5 CFU/mL), the “MIC (μg/mL) E. coli BL21” value amounted to 25 µg/mL. For the same substance, in the assay on Pseudomonas aeruginosa (5×10^5 CFU/mL), the “MIC (μg/mL) P. aeruginosa” value is 12.5 µg/mL. In addition, the “MIC (μg/mL) K. pneumonia” value in the assay with Klebsiella pneumonia (5×10^5 CFU/mL) came to 12.5 µg/mL. The “MIC (μg/mL) E. cloacae” value against Enterobacter cloacae (5×10^5 CFU/mL) was determined as 50 µg/mL. The “MIC (μg/mL) A. hydrophila” value with Aeromonas hydrophila (5×10^5 CFU/mL) is 12.5 µg/mL. Further, the “MIC (μg/mL) C. diversus” value against Citrobacter diversus (5×10^5 CFU/mL) came out at 50 µg/mL. In addition, the “MIC (μg/mL) M. catarrhalis” value against Moraxella catarrhalis (5×10^5 CFU/mL) amounted to 12.5 µg/mL. The “MIC (μg/mL) P. mirabilis” value against Proteus mirabilis (5×10^5 CFU/mL) stood at 25 µg/mL. The “MIC (μg/mL) P. vulgaris” value against Proteus vulgaris (5×10^5 CFU/mL) was found to be 50 µg/mL. Further, in the assay with Serratia marcescens (5×10^5 CFU/mL), the “MIC (μg/mL) S. marcescens” value is 12.5 µg/mL.
“PRT1338 (EMDPCTGLTPGGCSRNAECIKTGTGTHTCVCQQGWTGNGRDCS; listed as Homo sapiens)” returned a minimal inhibitory concentration (MIC) in the assay with E. coli DH5α of 50 mg/L. In the assay with E. coli BL21 (96-well plate, 5×10^5 CFU/mL, 37° C., 10 h), the “MIC against E. coli BL21” value turned out to be 25 mg/L. Also, in the assay on Pseudomonas aeruginosa (Pseudomonas aeruginosa, 96-well plate, 5×10^5 CFU/mL, 37° C., 10 h), the “MIC against P. aeruginosa” value was determined as 12.5 mg/L. Besides, the “MIC against K. pneumonia” value in the assay with Klebsiella pneumonia (Klebsiella pneumonia, 96-well plate, 5×10^5 CFU/mL, 37° C., 10 h) was found to be 25 mg/L. Further, the “MIC against E. cloacae” value against Enterobacter cloacae (Enterobacter cloacae, 96-well plate, 5×10^5 CFU/mL, 37° C., 10 h) was determined as 50 mg/L. For the same substance, the “MIC against A. hydrophila” value against Aeromonas hydrophila (Aeromonas hydrophila, 96-well plate, 5×10^5 CFU/mL, 37° C., 10 h) was 12.5 mg/L. Besides, the “MIC against C. diversus” value against Citrobacter diversus (Citrobacter diversus, 96-well plate, 5×10^5 CFU/mL, 37° C., 10 h) was 12.5 mg/L. Further, the “MIC against M. catarrhalis” value against Moraxella catarrhalis (Moraxella catarrhalis, 96-well plate, 5×10^5 CFU/mL, 37° C., 10 h) was 12.5 mg/L. In addition, the “MIC against P. mirabilis” value in the assay on Proteus mirabilis (Proteus mirabilis, 96-well plate, 5×10^5 CFU/mL, 37° C., 10 h) turned out to be 12.5 mg/L. In addition, in the assay on Proteus vulgaris (Proteus vulgaris, 96-well plate, 5×10^5 CFU/mL, 37° C., 10 h), the “MIC against P. vulgaris” value was 12.5 mg/L. Also, the “MIC against S. marcescens” value in the assay with Serratia marcescens (Serratia marcescens, 96-well plate, 5×10^5 CFU/mL, 37° C., 10 h) was determined as 25 mg/L.
With “PRT225 (DIDECSYSSYLCQYRCINEPGRFSCHCPQGYQLLATRLCQ; listed as Homo sapiens)”, in the assay on E. coli DH5α, the minimal inhibitory concentration (MIC) was found to be 12.5 mg/L. Besides, the “MIC (μg/mL) E. coli BL21” value in the assay with E. coli BL21 (5×10^5 CFU/mL) is 50 µg/mL. Also, in the assay on Pseudomonas aeruginosa (5×10^5 CFU/mL), the “MIC (μg/mL) P. aeruginosa” value is 12.5 µg/mL. Also, the “MIC (μg/mL) K. pneumonia” value against Klebsiella pneumonia (5×10^5 CFU/mL) amounted to 50 µg/mL. For the same substance, the “MIC (μg/mL) E. cloacae” value against Enterobacter cloacae (5×10^5 CFU/mL) is 25 µg/mL. The “MIC (μg/mL) A. hydrophila” value with Aeromonas hydrophila (5×10^5 CFU/mL) came out at 12.5 µg/mL. Besides, the “MIC (μg/mL) C. diversus” value in the assay with Citrobacter diversus (5×10^5 CFU/mL) amounted to 25 µg/mL. In addition, the “MIC (μg/mL) M. catarrhalis” value against Moraxella catarrhalis (5×10^5 CFU/mL) was 50 µg/mL. The “MIC (μg/mL) P. mirabilis” value against Proteus mirabilis (5×10^5 CFU/mL) worked out at 25 µg/mL. Besides, the “MIC (μg/mL) P. vulgaris” value with Proteus vulgaris (5×10^5 CFU/mL) worked out at 12.5 µg/mL. For the same substance, in the assay with Serratia marcescens (5×10^5 CFU/mL), the “MIC (μg/mL) S. marcescens” value amounted to 25 µg/mL.
Consider “PRT958 (DVDECSIGANPCEHLGRCVNTQGSFLCQCGRGYTGPRCE; listed as Homo sapiens)”, for which the MIC amounted to 50 mg/L in the assay on E. coli DH5α; 12.5 mg/L with E. coli BL21; 25 mg/L against Pseudomonas aeruginosa; 50 mg/L against Klebsiella pneumonia; 25 mg/L in the assay on Enterobacter cloacae; 25 mg/L in the assay on Aeromonas hydrophila. In addition, the MIC against Citrobacter diversus came to 12.5 mg/L; with Moraxella catarrhalis it was 50 mg/L; in the assay with Proteus mirabilis, 25 mg/L; against Proteus vulgaris, 12.5 mg/L; against Serratia marcescens, 25 mg/L.
In the assay on E. coli DH5α, “PRT179 (RVDRCSLQPCRNGGLCLDLGHALRCRCRAGFAGPRCE; listed as Homo sapiens)” yielded a minimal inhibitory concentration (MIC) of 50 mg/L. Besides, in the assay with E. coli BL21 (5×10^5 CFU/mL), the “MIC (μg/mL) E. coli BL21” value worked out at 25 µg/mL. The “MIC (μg/mL) P. aeruginosa” value against Pseudomonas aeruginosa (5×10^5 CFU/mL) worked out at 12.5 µg/mL. The “MIC (μg/mL) K. pneumonia” value in the assay on Klebsiella pneumonia (5×10^5 CFU/mL) worked out at 25 µg/mL. The “MIC (μg/mL) E. cloacae” value against Enterobacter cloacae (5×10^5 CFU/mL) was 50 µg/mL. Besides, the “MIC (μg/mL) A. hydrophila” value against Aeromonas hydrophila (5×10^5 CFU/mL) amounted to 12.5 µg/mL. In addition, the “MIC (μg/mL) C. diversus” value in the assay with Citrobacter diversus (5×10^5 CFU/mL) is 25 µg/mL. The “MIC (μg/mL) M. catarrhalis” value against Moraxella catarrhalis (5×10^5 CFU/mL) worked out at 12.5 µg/mL. Also, the “MIC (μg/mL) P. mirabilis” value in the assay on Proteus mirabilis (5×10^5 CFU/mL) came to 25 µg/mL. In the assay with Proteus vulgaris (5×10^5 CFU/mL), the “MIC (μg/mL) P. vulgaris” value was 12.5 µg/mL. The “MIC (μg/mL) S. marcescens” value in the assay on Serratia marcescens (5×10^5 CFU/mL) stood at 12.5 µg/mL.
